# Source: patent US20070287738A1, “Substituted Cyanopyridines as protein kinase inhibitors” (priority 2006, published 2007)
# Target: T1, purified recombinant active kinase domain of full length PKC theta (amino acids 362-706) (Homo sapiens, UniProt Q04759)
# T1 construct: active kinase domain of full length PKC theta (amino acids 362-706)
# Test: Radioactive kinase assay for inhibition of the active kinase domain (KD) of PKCθ
# Assay type: biochemical
# Settings: radioactive (ATP γ P33) assay, average value
# Method: A Radioactive Kinase Assay for Inhibition of the Active Kinase Domain (KD) of PKCθ
# This assay is based on the phosphorylation of a biotinylated substrate by a kinase utilizing radiolabeled ATP (ATP γ P33). The substrate was a biotinylated peptide with a sequence of biotin-FARKGSLRQ-C(O)NH2. The enzyme was purified recombinant active kinase domain of full length PKC theta (amino acids 362-706). The assay buffer was composed of 100 mM Hepes, pH7.5, 2 mM MgCl2, 20 mM β-glycerophosphate and 0.008% TritonX 100. A reaction mixture of ATP, ATP γ P33 (PerkinElmer), DTT, and the enzyme was prepared in the assay buffer and added to a 96-well polypropylene plate. The compound (diluted in DMSO in a separate 96-well polypropylene plate) was added to the reaction mixture and incubated at room temperature. Following the incubation, the peptide substrate was added to the reaction mixture to initiate the enzymatic reaction. The reaction was terminated with the addition of a stop solution (100 mM EDTA, 0.2% TritonX100, and 20 mM NaHPO4) and transferred from the assay plate to a washed streptavidin-coated 96-well scintiplate (PerkinElmer). The scintiplate was incubated at room temperature, washed in PBS with 0.1% TritonX 100, and counted in the 1450 Microbeta Trilux (Wallac, Version 2.60). Counts were recorded for each well as corrected counts per minute (CCPM). The counts were considered corrected because they were adjusted according to a P33 normalization protocol, which corrects for efficiency and background differences between the instrument detectors (software version 4.40.01).
# T1 sequence (Q04759 362-706): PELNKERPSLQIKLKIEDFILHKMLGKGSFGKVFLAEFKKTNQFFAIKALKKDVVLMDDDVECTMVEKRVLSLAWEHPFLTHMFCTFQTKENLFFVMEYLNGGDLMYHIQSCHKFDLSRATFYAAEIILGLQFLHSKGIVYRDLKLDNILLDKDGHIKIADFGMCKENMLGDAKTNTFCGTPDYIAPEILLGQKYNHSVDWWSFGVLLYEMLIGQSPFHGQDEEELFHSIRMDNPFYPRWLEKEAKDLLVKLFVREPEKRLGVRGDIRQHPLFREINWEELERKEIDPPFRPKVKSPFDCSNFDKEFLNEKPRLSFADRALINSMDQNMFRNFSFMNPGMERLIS
row,Structure (SMILES),IC50 [nM]
1,"N#Cc1cncc(-c2cccc([N+](=O)[O-])c2)c1Nc1ccc(OCc2ccccc2)c(Cl)c1 [Compound 142, 4-{[4-(benzyloxy)-3-chlorophenyl]amino}-5-(3-nitrophenyl)nicotinonitrile]",214000
2,"COc1ccc(Nc2c(C#N)cncc2-c2ccc(OC)c(OC)c2)c(C)c1 [Compound 114, 5-(3,4-dimethoxyphenyl)-4-[(4-methoxy-2-methylphenyl)amino]nicotinonitrile]",400
3,"COc1ccc(Nc2c(C#N)cncc2-c2ccc(OC)c(OC)c2)cc1OC [Compound 105, 5-(3,4-dimethoxyphenyl)-4-[(3,4-dimethoxyphenyl)amino]nicotinonitrile]",10600
4,"COc1ccc(-c2cncc(C#N)c2Nc2cc(F)ccc2F)cc1OC [Compound 104, 4-[(2,5-difluorophenyl)amino]-5-(3,4-dimethoxyphenyl)nicotinonitrile]",600

# Target: T2, human PKCθ full length enzyme (Homo sapiens, UniProt Q04759)
# T2 construct: human PKCθ full length enzyme (Panvera Cat# P2996); purchased Panvera P2996
# Test: PKCθ IMAP assay
# Assay type: biochemical
# Settings: full length enzyme 1 nM; ATP 6 μM; peptide 100 nM; FP readout; average value
# Method: The materials used include the following: human PKCθ full length enzyme (Panvera Cat# P2996); substrate peptide: 5FAM-RFARKGSLRQKNV-OH (Molecular Devices, RP7032); ATP (Sigma Cat # A2383); DTT (Pierce, 20291); 5× kinase reaction buffer (Molecular Devices, R7209); 5× binding buffer A (Molecular Devices, R7282), 5× binding buffer B (Molecular Devices, R7209); IMAP Beads (Molecular Devices, R7284); and 384-well plates (Corning Costar, 3710).
# The reaction buffer was prepared by diluting the 5× stock reaction buffer and adding DTT to obtain a concentration of 3.0 mM. The binding buffer was prepared by diluting the 5× binding buffer A. A master mix solution was prepared using a 90% dilution of the reaction buffer containing 2× ATP (12 uM) and 2× peptide (200 nm). Compounds were diluted in DMSO to 20× of the maximum concentration for the IC50 measurement. 27 μl of the master mix solution for each IC50 curve was added to the first column in a 384-well plate and 3 μl of 20× compound in DMSO was added to each well. The final concentration of compound was 2× and 10% DMSO. DMSO was added to the rest of the master mix to increase the concentration to 10%. 10 μl of the master mix containing 10% DMSO was added to the rest of the wells on the plate except the 2nd column. 20 μl was transferred from the first column to the 2nd column.
# The compounds were serially diluted in 2:1 ratio starting from the 2nd column. A 2× (2 nM) PKCθ solution was made in the reaction buffer. 10 μl of the PKCθ solution was added to every well to achieve these final concentrations: PKCθ—1 nM; ATP—6 μM; peptide—100 nM; DMSO—5%. Samples were incubated for 25 minutes at room temperature. The binding reagent was prepared by diluting the beads in 1× binding buffer to 800:1. 50 μl of the binding reagent was added to every well and incubated for 20 minutes. FP was measured using Envision2100 (PerkinElmer Life Sciences). Wells with no ATPs and wells with no enzymes were used as controls.
# T2 sequence (Q04759 whole entry): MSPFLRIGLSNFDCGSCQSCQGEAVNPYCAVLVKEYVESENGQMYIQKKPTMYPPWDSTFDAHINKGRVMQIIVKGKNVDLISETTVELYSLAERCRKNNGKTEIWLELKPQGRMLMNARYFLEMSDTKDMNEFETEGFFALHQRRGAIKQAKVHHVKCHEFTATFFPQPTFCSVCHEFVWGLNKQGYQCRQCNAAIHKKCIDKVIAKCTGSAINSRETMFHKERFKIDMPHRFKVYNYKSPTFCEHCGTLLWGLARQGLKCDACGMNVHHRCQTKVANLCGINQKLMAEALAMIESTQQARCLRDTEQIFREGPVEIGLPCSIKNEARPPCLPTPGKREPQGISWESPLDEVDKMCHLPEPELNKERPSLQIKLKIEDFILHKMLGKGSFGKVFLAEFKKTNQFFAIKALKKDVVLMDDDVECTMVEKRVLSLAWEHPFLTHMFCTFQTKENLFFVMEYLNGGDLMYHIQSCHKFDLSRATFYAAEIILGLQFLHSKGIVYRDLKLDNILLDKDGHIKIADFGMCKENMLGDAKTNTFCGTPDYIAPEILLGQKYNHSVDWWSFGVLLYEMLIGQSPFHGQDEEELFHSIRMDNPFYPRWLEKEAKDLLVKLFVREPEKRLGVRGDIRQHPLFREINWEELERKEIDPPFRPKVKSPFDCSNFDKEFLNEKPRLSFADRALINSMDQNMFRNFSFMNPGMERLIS
row,Structure (SMILES),IC50 [nM]
1,"N#Cc1cncc(-c2cc3cc(CN4CCCCC4)ccc3o2)c1Nc1cc(O)c(Cl)cc1Cl [Compound 171, 4-[(2,4-dichloro-5-hydroxyphenyl)amino]-5-[5-(piperidin-1-ylmethyl)-1-benzofuran-2-yl]nicotinonitrile]",270
2,"COc1ccc(-c2cncc(C#N)c2NCc2cccc(CN)c2)cc1OC [Compound 170, 4-{[3-(aminomethyl)benzyl]amino}-5-(3,4-dimethoxyphenyl)nicotinonitrile]",11900
3,"COc1cccc(-c2cncc(C#N)c2Nc2cccc(F)c2)c1 [Compound 155, 4-[(3-fluorophenyl)amino]-5-(3-methoxyphenyl)nicotinonitrile]",1570
4,"Cc1c(N)ccc(Nc2c(C#N)cncc2-c2cc3cc(CN4CCCCC4)ccc3s2)c1C [Compound 165, 4-[(4-amino-2,3-dimethylphenyl)amino]-5-[5-(piperidin-1-ylmethyl)-1-benzothien-2-yl]nicotinonitrile]",650
5,"N#Cc1cncc(-c2cc3cc(CN4CCCCC4)ccc3o2)c1Nc1cc(O)ccc1Oc1ccccc1 [Compound 169, 4-[(5-hydroxy-2-phenoxyphenyl)amino]-5-[5-(piperidin-1-ylmethyl)-1-benzofuran-2-yl]nicotinonitrile]",650
6,"COc1ccc(-c2cncc(C#N)c2Nc2cccc(NS(C)(=O)=O)c2)cc1OC [Compound 129, N-(3-{[3-cyano-5-(3,4-dimethoxyphenyl)pyridin-4-yl]amino}phenyl)methanesulfonamide]",36000
7,"COc1ccc(-c2cncc(C#N)c2Nc2cccc(NC(C)=O)c2)cc1OC [Compound 127, N-(3-{[3-cyano-5-(3,4-dimethoxyphenyl)pyridin-4-yl]amino}phenyl) acetamide]",570
8,"CN(C)c1ccc(-c2cncc(C#N)c2Nc2ccc(C#N)cc2)cc1 [Compound 133, 4-[(4-cyanophenyl)amino]-5-[4-(dimethylamino)phenyl]nicotinonitrile]",30000
9,"CN(C)c1ccc(-c2cncc(C#N)c2Nc2cccc([N+](=O)[O-])c2)cc1 [Compound 152, 5-[4-(dimethylamino)phenyl]-4-[(3-nitrophenyl)amino]nicotinonitrile]",7840
10,"COc1cccc(-c2cncc(C#N)c2Nc2ccc(C(=O)O)cc2)c1 [Compound 156, 4-{[3-cyano-5-(3-methoxyphenyl)pyridin-4-yl]amino}benzoic acid]",46400
11,"COc1ccc(Nc2c(C#N)cncc2-c2cc3cc(CN4CCCCC4)ccc3o2)c(C)c1 [Compound 172, 4-[(4-methoxy-2-methylphenyl)amino]-5-[5-(piperidin-1-ylmethyl)-1-benzofuran-2-yl]nicotinonitrile]",160
12,"COc1cccc(-c2cncc(C#N)c2Nc2cccc([N+](=O)[O-])c2)c1 [Compound 153, 5-(3-methoxyphenyl)-4-[(3-nitrophenyl)amino]nicotinonitrile]",9630
13,"COc1ccc(-c2cncc(C#N)c2Nc2cccc(OCCO)c2)cc1OC [Compound 160, 5-(3,4-dimethoxyphenyl)-4-{[3-(2-hydroxyethoxy)phenyl]amino}nicotinonitrile]",5210
14,"COc1cccc(Nc2c(C#N)cncc2-c2ccc(N(C)C)cc2)c1 [Compound 130, 5-[4-(dimethylamino)phenyl]-4-[(3-methoxyphenyl)amino]nicotinonitrile]",800
15,"Cc1ccc(Cl)c(Nc2c(C#N)cncc2-c2cc3cc(CN4CCCCC4)ccc3o2)c1 [Compound 168, 4-[(2-chloro-5-methylphenyl)amino]-5-[5-(piperidin-1-ylmethyl)-1-benzofuran-2-yl]nicotinonitrile]",2040
16,"CN(C)c1ccc(-c2cncc(C#N)c2Nc2cccc(F)c2)cc1 [Compound 131, 5-[4-(dimethylamino)phenyl]-4-[(3-fluorophenyl)amino]nicotinonitrile]",710
17,"N#Cc1cncc(-c2cc3cc(CN4CCCCC4)ccc3s2)c1Nc1cc(O)ccc1Cl [Compound 163, 4-[(2-chloro-5-hydroxyphenyl)amino]-5-[5-(piperidin-1-ylmethyl)-1-benzothien-2-yl]nicotinonitrile]",30
18,"N#Cc1cncc(-c2cc3cc(C=O)ccc3s2)c1Nc1cc(O)ccc1Cl [Compound 162, 4-[(2-chloro-5-hydroxyphenyl)amino]-5-(5-formyl-1-benzothein-2-yl)nicotinonitrile]",30
19,"CN(C)c1ccc(-c2cncc(C#N)c2Nc2ccc(F)c(F)c2)cc1 [Compound 134, 4-[(3,4-difluorophenyl)amino]-5-[4-(dimethylamino)phenyl]nicotinonitrile]",2030
20,"COc1ccc(-c2cncc(C#N)c2Nc2cccc(N(C)C(C)=O)c2)cc1OC [Compound 128, N-(3-{[3-cyano-5-(3,4-dimethoxyphenyl)pyridin-4-yl]amino}phenyl)-N-methylacetamide]",35000
21,"COc1ccc(-c2cncc(C#N)c2Nc2cccc(OC[C@@H](N)Cc3ccccc3)c2)cc1OC [Compound 161, 4-[(3-{[(2S)-2-amino-3-phenylpropyl]-oxy}-phenyl)amino]-5-(3,4-dimethoxyphenyl)nicotinonitrile]",820
22,"COc1ccc(Cl)c(Nc2c(C#N)cncc2-c2cc3cc(CN4CCCCC4)ccc3o2)c1 [Compound 167, 4-[(2-chloro-5-methoxyphenyl)amino]-5-[5-(piperidin-1-ylmethyl)-1-benzofuran-2-yl]nicotinonitrile]",730
23,N#Cc1cncc(-c2cc3cc(CN4CCCCC4)ccc3s2)c1Nc1cc(OCCO)ccc1Cl [Compound 164],60
24,"Cc1cc(Nc2c(C#N)cncc2-c2cc3cc(CN4CCCCC4)ccc3s2)ccc1N [Compound 166, 4-[(4-amino-3-methylphenyl)amino]-5-[5-(piperidin-1-ylmethyl)-1-benzothien-2-yl]nicotinonitrile]",1060
25,"COc1cccc(-c2cncc(C#N)c2Nc2ccc(C#N)cc2)c1 [Compound 157, 4-[(4-cyanophenyl)amino]-5-(3-methoxyphenyl)nicotinonitrile]",> 95000
26,"COc1cccc(-c2cncc(C#N)c2Nc2ccc(F)c(F)c2)c1 [Compound 158, 4-[(3,4-difluorophenyl)amino]-5-(3-methoxyphenyl)nicotinonitrile]",2400
27,"COc1ccc(-c2cncc(C#N)c2Nc2cccc(O)c2)cc1OC [Compound 159, 5-(3,4-dimethoxyphenyl)-4-[(3-hydroxyphenyl)amino]nicotinonitrile]",310
28,"COc1cccc(Nc2c(C#N)cncc2-c2cccc(OC)c2)c1 [Compound 154, 5-(3-methoxyphenyl)-4-[(3-methoxyphenyl)amino]nicotinonitrile]",1730
